Results on one molecule are retold here after article PMC5724825, “Structure-activity studies of Mdm2/Mdm4-binding stapled peptides comprising non-natural amino acids” (PLoS ONE, 2017).

The test system of test [1] is p53 transactivation in T22 cells. In words: p53 reporter assay in T22 cells (β galactosidase). The format is cell-based. To be noted: 5, 10, 20 μM peptide, 18 hours, DMEM with 10% FBS. How it is done:
Dulbecco’s Minimal Eagle Medium (DMEM) with 10% fetal bovine serum (FBS) and penicillin/streptomycin was used to maintain cells. T22 cells stably transfected with a p53 responsive β galactosidase reporter, were seeded into 96-well plates (8000 cells per well). 24 hours later, cells were treated with compounds/peptide for 18 hours in DMEM with 10% FBS. β galactosidase activity was measured using the FluoReporter LacZ/Galactosidase Quantitation kit (Invitrogen). Measurements were carried out on a Safire II multiplate reader (TECAN). All experiments were carried out in duplicate.
Fig 4 T22 reporter assay measuring p53 transactivation. A. Cells were treated with increasing concentrations (5, 10, 20 μM) of indicated peptide ligands and p53 activity determined by measuring β galactosidase levels. The small molecule Mdm2 inhibitor Nutlin (10 μM) was used as positive control. Activity is expressed as fold increase over cells treated with DMSO vehicle only. Values represent average ± SD (n = 2). * p < 0.001 compared to DMSO control. B. Lactate dehydrogenase release assay indicating no significant membrane disruption observed for increasing concentrations (2, 10, 20 μM) of indicated ligands compared to vehicle (DMSO) and positive maximum lysis control (MLC). Values represent average ± SD (n = 3).
On the technique in general: A reporter such as luciferase makes a cellular process visible.

In test [2] the test system is activation of the p53 tumour suppressor. As to conditions: earlier series; cited from earlier work. From the text: We have previously described a series of peptide antagonists targeting Mdm2, a key regulator of p53 function. In common with all reported high-affinity binders, these peptides incorporate a signature p53-derived interacting motif comprising F, W and L residues that respectively dock into discrete hydrophobic pockets in the N-terminal domain of Mdm2 [13]. This series exemplified significant enhancements in binding affinity, cellular uptake and activity arising from incorporation of a hydrocarbon tether and replacement of the tryptophan with the non-natural L-6-chlorotryptophan. The ...

For test [3], the target named is T1, Mdm4 (amino acids 1–108) (Homo sapiens, UniProt O15151).
T1 construct: Mdm4 and Mdm4-L98V (amino acids 1–108) were cloned with C-terminal 6xHIS tags; made in house; host or cells: Escherichia coli BL21(DE3)
T1 sequence (O15151 1-108): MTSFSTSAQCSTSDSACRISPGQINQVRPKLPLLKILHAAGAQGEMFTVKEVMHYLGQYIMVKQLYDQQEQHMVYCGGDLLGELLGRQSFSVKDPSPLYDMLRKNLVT
The test is described as follows: Competitive fluorescence anisotropy, Mdm4. The format is binding. To be noted: from Table 2. How it is done: (§1) Mdm4 and Mdm4-L98V (amino acids 1–108) were cloned with C-terminal 6xHIS tags. The constructs were then transformed into Escherichia coli BL21(DE3) (Invitrogen) competent cells. Cells were grown in LB medium at 37°C and induced at OD600 nm of 0.6 at 25°C with 0.25 mM IPTG and at 16°C with 1 mM IPTG for Mdm4-WT and Mdm4-L98V respectively. After overnight induction, the cells were harvested by centrifugation, resuspended in His-binding buffer (50 mM Bis-Tris pH 6.5, 1M NaCl, 20 mM imidazole, 0.5 mM DTT), and lysed by sonication. After centrifugation for 60 mins at 19,000 × g at 4°C, the cell lysate was then applied to a 1 mL HisTrap FF column (GE Healthcare) pre-equilibrated in His-binding buffer, washed and eluted off the column with His-elution buffer (50 mM Bis-Tris pH 6.5, 1M NaCl, 500 mM imidazole, 0.5 mM DTT) with a gradient elution of 35% elution buffer in 5 column volumes, followed by 35% to 100% elution buffer over 80 column volumes. Protein purity as assessed by SDS-PAGE was ~ 90%, and the fractions were pooled and buffer exchanged into 50 mM Bis-Tris pH 6.5, 350 mM NaCl, 1 mM DTT. The proteins were then concentrated using Amicon-Ultra (3 kDa MWCO) concentrator (Millipore).
(§2) Fluorescence anisotropy assays were performed as previously described. Titrations of purified Mdm2/Mdm4 proteins were incubated with 50 nM of carboxyfluorescein (FAM) labelled 12–1 peptide (FAM-[…]-NH2) to initially determine the dissociation constants for the peptide-protein interactions. Apparent Kds of peptides were next determined by competitive fluorescence anisotropy. Titrations of peptides were carried out at constant concentrations of Mdm2/Mdm2-M62A/Mdm4 (150 nM), Mdm4-L98V (250 nM) and labelled peptide (50 nM). Anisotropy measurements were carried out using the Envision Multilabel Reader (PerkinElmer). All experiments were carried out in PBS (2.7 mM KCl, 137 mM NaCl, 10 mM Na2HPO4 and 2 mM KH2PO4, pH 7.4), 4% DMSO and 0.1% Tween-20 buffer. All titrations were carried out in duplicate (3–6 repeats). Curve fitting was carried out using Prism (GraphPad).

For test [4], the target named is T2, Mdm4-L98V (amino acids 1–108) (Homo sapiens, UniProt O15151, L98V).
T2 construct: Mdm4 and Mdm4-L98V (amino acids 1–108) were cloned with C-terminal 6xHIS tags; made in house; host or cells: Escherichia coli BL21(DE3)
T2 sequence (O15151 1-108 L98V): T1 sequence (O15151 1-108) with L98V
The test is described as follows: Competitive fluorescence anisotropy, Mdm4-L98V. The format is binding. As to conditions: from Table 2. Here is the method: as §1, §2
A general note: Fluorescence polarisation rises when a labelled molecule tumbles more slowly, as on binding a larger partner.

Test [5] has as its target T3, Mdm2 (amino acids 6–125) (Homo sapiens, UniProt Q00987). Further details: Mdm2 (amino acids 6–125) was cloned as a GST-fusion protein; GST (N, cleaved yes); made in house; host or cells: Escherichia coli BL21(DE3) pLysS. As to conditions: earlier series; cited from earlier work. The source says: In common with all reported high-affinity binders, these peptides incorporate a signature p53-derived interacting motif comprising F, W and L residues that respectively dock into discrete hydrophobic pockets in the N-terminal domain of Mdm2 [13]. […] The ...

Test [6] addresses T3, Mdm2 (amino acids 6–125). The test is described as follows: Competitive fluorescence anisotropy, Mdm2. The format is binding. Further details: Mdm2 (amino acids 6–125) was cloned as a GST-fusion protein; GST (N, cleaved yes); made in house; host or cells: Escherichia coli BL21(DE3) pLysS. To be noted: from Table 2.

Residue numbers refer to the chain shown, from its start.

On to `CC(=O)N[C@H](C(=O)N[C@@H](CO)C(=O)N[C@@H](Cc1ccccc1)C(=O)N[C@]1(C)CCCCCCC=CCCC[C@@](C)(C(N)=O)NC(=O)[C@H](CC(C)C)NC(=O)[C@H](CC(C)C)NC(=O)[C@H](C)NC(=O)[C@H](Cc2c[nH]c3cc(Cl)ccc23)NC(=O)[C@H](Cc2ccc(O)cc2)NC(=O)[C@H](CCC(=O)O)NC1=O)[C@@H](C)O` [M011], for which the “More active than M012 in T22 p53 reporter assay” value in test [1] is ~ 20%. The “Enhanced cellular activity over the parental peptide” value in test [2] was ~ 59 fold. In test [3], the “Binding to Mdm2 over Mdm4 (affinity for Mdm4 reduced compared to Mdm2)” value is ~ 50 fold and the “Reduced binding to Mdm4 compared to PM2” value is ~ 3 fold. In test [4], the “Increase in binding affinity to Mdm4-L98V over binding to Mdm4” value is recorded as ~ 4.6 fold. Moreover, the “Increase in Mdm2 binding affinity over the parental peptide” value in test [5] is given as ~ 7 fold. Further, in test [6], the “Increased Mdm2 binding affinity over parental stapled peptide lacking the 6-chloro modification (PM2)” value is ~ 8 fold.
